The text below walks through data of US20100323021A1, “ANTITUMORAL TREATMENTS” (PHARMA MAR, S.A., priority 2008, published 2010).

Data set [1] concerns human tumor cell types such as breast, prostate, and melanoma. As to conditions: xenografted murine models; cited from earlier work.
Data set [2] deals with human cervical epithelium HeLa tumor cells. Description: Antiproliferation assay (WST-1 cell viability). The format is cell-based. As to conditions: 24 h incubation, conjugates added at a peptide concentration of 1×10^−5 M. The method, then: The degree of cytotoxic activity of single peptides (P1 and P2), single gold nanoparticle solutions (AuNP-20 and AuNP-40) and their respective conjugates was determined by cell viability testing using the WST-1 assay in human cervical epithelium HeLa tumor cells, following 24 h of incubation. Each assay was run in sextuplicate, and the whole experiment was run in triplicate.
HeLa cell line (ATTC no CCL-2) was maintained in Dulbecco Modified Eagle's Minimal Essential Medium (DMEM) low glucose medium (Biological Industries) containing 10% foetal calf serum (FCS), 2 mM glutamine, 50 U/mL penicillin, and […] streptomycin at 37° C. in a controlled 5% CO2 atmosphere.
For cell viability experiments, exponentially growing HeLa cells were detached from the culture flasks using a trypsin-0.25% ethylenediaminetetraacetic acid (EDTA) solution and the cell suspension was seeded at a concentration of 3.5×10^3 cells/cm^2 onto glass coverslips (Nalge Nunc International, Rochester, N.Y.). WST 1 assays were carried out 24 h later, when the confluence was approximately 70-80%. Non-adherent cells were washed away and attached cells were incubated at 37° C. in 5% CO2 in DMEM with a known concentration of gold nanoparticles.
For each assay, 3.5×10^3 cells/cm^2 were seeded onto a 96-well plate (Nalge Nunc) and cultured for 24 h. […]
On the technique in general: Tetrazolium dyes change colour on reduction, which living cells bring about.

Data set [3] relates to colon (HT-29). Conditions: cited from earlier work.
Data set [4] concerns mouse leukemia (P388). As to conditions: cited from earlier work.
In data set [5] the test system is non-small cell lung (A549). As to conditions: cited from earlier work.

With `C/C=C1\NC(=O)[C@H](Cc2ccccc2)NC(=O)[C@@H](C(C)C)NC(=O)[C@@H]([C@@H](C)CC)NC(=O)[C@H](NC(=O)[C@H](NC(=O)[C@H](CCCN)NC(=O)[C@H]2CCCN2C(=O)[C@H](NC(=O)[C@@H](NC(=O)[C@@H](NC(=O)[C@H](NC(=O)CC[C@@H](C)CC)C(C)C)[C@@H](C)O)C(C)C)C(C)C)[C@@H](C)CC)[C@@H](C)OC(=O)[C@H](C(C)C)NC1=O` [PMO2734], in data set [1], the in vivo activity entry is on record as “significant in vivo activity”.

For the compound `C/C=C1\NC(=O)[C@H](Cc2ccccc2)NC(=O)[C@@H](C(C)C)NC(=O)[C@@H]([C@@H](C)CC)NC(=O)[C@H](NC(=O)[C@H](NC(=O)[C@H](CCCN)NC(=O)[C@H]2CCCN2C(=O)[C@H](NC(=O)[C@@H](NC(=O)[C@@H](NC(=O)[C@@H](CS)NC(=O)CCCC(C)C)[C@@H](C)O)C(C)C)C(C)C)[C@@H](C)CC)[C@@H](C)OC(=O)[C@H](C(C)C)NC1=O` [P1], the “inhibition (cytotoxicity against HeLa cells)” value in data set [2] came out at 50%.

Regarding `C/C=C1\NC(=O)[C@H](Cc2ccccc2)NC(=O)[C@@H](C(C)C)NC(=O)[C@@H]([C@@H](C)CC)NC(=O)[C@H](NC(=O)[C@H](NC(=O)[C@H](CCCN)NC(=O)[C@H]2CCCN2C(=O)[C@H](NC(=O)[C@@H](NC(=O)[C@@H](NC(=O)[C@H](NC(=O)CCCC(C)C)C(C)C)[C@@H](C)O)C(C)C)C(C)C)[C@@H](C)CC)[C@@H](C)OC(=O)[C@H](C(C)C)NC1=O` [Kahalalide F], the in vitro activity result in data set [3], in data set [4] and in data set [5] was “micromolar activity” throughout.

With `C/C=C1\NC(=O)[C@H](Cc2ccccc2)NC(=O)[C@@H](C(C)C)NC(=O)[C@@H]([C@@H](C)CC)NC(=O)[C@H](NC(=O)[C@H](NC(=O)[C@H](CCCN)NC(=O)[C@H]2CCCN2C(=O)[C@H](NC(=O)[C@@H](NC(=O)[C@@H](NC(=O)[C@H](CS)NC(=O)CCCC(C)C)[C@@H](C)O)C(C)C)C(C)C)[C@@H](C)CC)[C@@H](C)OC(=O)[C@H](C(C)C)NC1=O` [P2], in data set [2], the “inhibition (cytotoxicity against HeLa cells)” value is 10%.
